Measured values reported in patent publication US11840528B2 (Hoffmann-La Roche Inc., priority 2018, dated 2023).

Assays:
h-GABA-A α5β3γ2 [1] = target: T1, h-GABA-A α5β3γ2 (Homo sapiens, UniProt P18507+P31644); test: Two-electrode voltage clamp electrophysiology in Xenopus laevis oocytes expressing GABAA receptors, modulation of GABA EC20 current; assay type: cell-based; design: host or cells: Xenopus laevis oocytes micro-injected with RNA transcripts of the subunits; details: Table 1; for Efficacy (GABA) %: % modulation of GABA EC20 = 100*(Fold increase-1); for Fold increase h-GABA-A α5β3γ2 oocyte: test compound at approx. 30 fold its Ki, GABA at EC20
Summary of the method: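 Modulation is reported as % of the GABA EC20 current, calculated as 100*(Fold increase−1) from the peak ratio between a second GABA response carrying compound (applied at roughly 30-fold Ki) and a preceding control response. Oocytes expressing human α5β3γ2 were clamped at −80 mV at room temperature, 3–5 days after injection.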

h-GABA-A α5β3γ2 [2] = target: T1, h-GABA-A α5β3γ2; test: [3H]flumazenil competition binding assay, membranes of HEK293 cells expressing GABAA receptors; details: displacement of [3H]-Flumazenil 0.5 nM, HEK293 cells expressing human receptors, mean of two determinations; Table 1
Summary of the method: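 Receptor source: human α5β3γ2 transiently transfected into HEK293 cells, membranes in pH 7.5 Krebs-tris. Filtration through GF/C, then scintillation counting.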

| Efficacy (GABA) % (h-GABA-A α5β3γ2 [1]) [%] | Fold increase h-GABA-A α5β3γ2 oocyte (h-GABA-A α5β3γ2 [1]) | Ki (h-GABA-A α5β3γ2 [2]) [nM] | SMILES |
| --- | --- | --- | --- |
| 87 | 1.87 | 11.9 | Cc1onc(-c2ccc(Cl)cn2)c1Cn1ncc(N2CC3(C2)CN(C2CC2)C3)cc1=O [Example 86, 2-[[3-(5-chloro-2-pyridyl)-5-methyl-isoxazol-4-yl]methyl]-5-(2-cyclopropyl-2,6-diazaspiro[3.3]heptan-6-yl)pyridazin-3-one] |
| 74 | 1.74 | 16 | Cc1ccc(-c2noc(CF)c2Cn2ncc(N3CC4(CCCO4)C3)cc2=O)nn1 [Example 295, 2-((5-(fluoromethyl)-3-(6-methylpyridazin-3-yl)isoxazol-4-yl)methyl)-5-(5-oxa-2-azaspiro[3.4]octan-2-yl)pyridazin-3(2H)-one] |
| 157 | 2.57 | 15.4 | Cc1ccc(-c2noc(C)c2Cn2ncc(N3CCN(C4CC4)[C@H](C)C3)cc2=O)cn1 [Example 59, 5-[(3R)-4-cyclopropyl-3-methyl-piperazin-1-yl]-2-[[5-methyl-3-(6-methyl-3-pyridyl)isoxazol-4-yl]methyl]pyridazin-3-one] |
| 157 | 2.57 | 21.7 | Cc1ccc(-c2nocc2Cn2ncc(N3CCO[C@@H](C)C3)cc2=O)cn1 [Example 91, 5-[(2S)-2-methylmorpholin-4-yl]-2-[[3-(6-methyl-3-pyridyl)isoxazol-4-yl]methyl]pyridazin-3-one] |
| 166 | 2.66 | 20 | CCc1onc(-c2ccc(C)nn2)c1Cn1ncc(N2CC3(CCCCO3)C2)cc1=O [Example 324, 2-((5-ethyl-3-(6-methylpyridazin-3-yl)isoxazol-4-yl)methyl)-5-(5-oxa-2-azaspiro[3.5]nonan-2-yl)pyridazin-3(2H)-one] |
| 96 | 1.96 | 4.2 | CNc1cc(-c2cnn(Cc3c(-c4ccc(C)nc4)noc3C)c(=O)c2)ccn1 [Example 202, 2-((5-methyl-3-(6-methylpyridin-3-yl)isoxazol-4-yl)methyl)-5-(2-(methylamino)pyridin-4-yl)pyridazin-3(2H)-one] |
| 105 | 2.05 | 9.2 | Cc1ccc(-c2noc(C)c2Cn2ncc(N3CC(Oc4ccc(Cl)nc4)C3)cc2=O)cn1 [Example 138, 5-[3-[(6-chloro-3-pyridyl)oxy]azetidin-1-yl]-2-[[5-methyl-3-(6-methyl-3-pyridyl)isoxazol-4-yl]methyl]pyridazin-3-one] |
| 97 | 1.97 | 2.4 | COC1CN(c2cnn(Cc3c(-c4ccc(C)nn4)noc3C)c(=O)c2)C1 [Example 169, 5-(3-methoxyazetidin-1-yl)-2-[[5-methyl-3-(6-methylpyridazin-3-yl)isoxazol-4-yl]methyl]pyridazin-3-one] |
| 134 | 2.34 | 15.7 | Cc1ccc(-c2noc(C)c2Cn2ncc(N3CC(F)C3)cc2=O)cn1 [Example 181, 5-(3-fluoroazetidin-1-yl)-2-[[5-methyl-3-(6-methyl-3-pyridyl)isoxazol-4-yl]methyl]pyridazin-3-one] |
| 89 | 1.89 | 85 | COc1ccc(-c2cnn(Cc3c(-c4ccc(C)nc4)noc3C)c(=O)c2)nc1 [Example 84, 5-(5-methoxypyridin-2-yl)-2-((5-methyl-3-(6-methylpyridin-3-yl)isoxazol-4-yl)methyl)pyridazin-3(2H)-one] |
| 89 | 1.89 | 20.2 | Cc1ccc(-c2noc(C)c2Cn2ncc(-c3ccc(OC(F)F)nc3)cc2=O)cn1 [Example 149, 5-(6-(difluoromethoxy)pyridin-3-yl)-2-((5-methyl-3-(6-methylpyridin-3-yl)isoxazol-4-yl)methyl)pyridazin-3(2H)-one] |
| 173 | 2.73 | 4.6 | Cc1ccc(-c2noc(CF)c2Cn2ncc(N3C[C@@H](C)O[C@@H](C)C3)cc2=O)cn1 [Example 243, 5-((2S,6R)-2,6-dimethylmorpholin-4-yl)-2-((5-(fluoromethyl)-3-(6-methylpyridin-3-yl)-1,2-oxazol-4-yl)methyl)pyridazin-3-one] |
| 144 | 2.44 | 27.8 | Cc1onc(-c2ccc(Cl)nc2)c1Cn1ncc(N2CCC3(CCO3)CC2)cc1=O [Example 270, 2-((3-(6-chloropyridin-3-yl)-5-methylisoxazol-4-yl)methyl)-5-(1-oxa-7-azaspiro[3.5]nonan-7-yl)pyridazin-3(2H)-one] |
| 119 | 2.19 | 50 | Cc1onc(-c2ccc(Cl)nc2)c1Cn1ncc(-c2cnn(C)c2)cc1=O [Example 215, 2-((3-(6-chloropyridin-3-yl)-5-methylisoxazol-4-yl)methyl)-5-(1-methyl-1H-pyrazol-4-yl)pyridazin-3(2H)-one] |
| 146 | 2.46 | 25.2 | Cc1ccc(-c2noc(C)c2Cn2ncc(-c3ccc(OC(C)C)nc3)cc2=O)cn1 [Example 190, 5-(6-isopropoxy-3-pyridyl)-2-((5-methyl-3-(6-methyl-3-pyridyl)isoxazol-4-yl)methyl)pyridazin-3-one] |
| 155 | 2.55 | 38.9 | Cc1ccc(-c2noc(C)c2Cn2ncc(N3CC4(CCC4)C3)cc2=O)cn1 [Example 69, 5-(2-azaspiro[3.3]heptan-2-yl)-2-[[5-methyl-3-(6-methyl-3-pyridyl)isoxazol-4-yl]methyl]pyridazin-3-one] |
| 247 | 3.47 | 28.4 | CC1(C(=O)N2CCN(c3cnn(Cc4c(-c5ccc(Cl)cn5)noc4C4CC4)c(=O)c3)CC2)CC1 [Example 26, 2-((3-(5-Chloropyridin-2-yl)-5-cyclopropylisoxazol-4-yl)methyl)-5-(4-(1-methylcyclopropanecarbonyl)piperazin-1-yl)pyridazin-3(2H)-one] |
| 155 | 2.55 | 1.6 | Cc1ccc(-c2noc(C)c2Cn2ncc(N3CCC(O)CC3)cc2=O)cn1 [Example 5, 5-(4-hydroxy-1-piperidyl)-2-[[5-methyl-3-(6-methyl-3-pyridyl)isoxazol-4-yl]methyl]pyridazin-3-one] |
| 132 | 2.32 | 7.3 | Cc1ccc(-c2noc(C)c2Cn2ncc(N3CC(C)(O)C3)cc2=O)cn1 [Example 98, 5-(3-hydroxy-3-methyl-azetidin-1-yl)-2-[[5-methyl-3-(6-methyl-3-pyridyl)isoxazol-4-yl]methyl]pyridazin-3-one] |
| 116 | 2.16 | 25.4 | Cc1onc(-c2ccc(Cl)nc2)c1Cn1ncc(N2CC3(CCC(F)CO3)C2)cc1=O (single isomer, unassigned) [Example 298] |
